Inconclusive results and toxic doses are left out.
System: CD2F1 mice, L1210 leukemia ip, survival T/C
Assay: NCI In Vivo Anticancer Drug Screen. Data for tumor model L1210 Leukemia (intraperitoneal) in CD2F1 (CDF1) mice
Details: higher = longer survival
Summary of the method: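 In this screen, transplantable tumors were grown in mice given either the compound or its vehicle. Results were expressed as the treated measurement relative to the control measurement.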

[1] = endpoint: median survival time, dose: 40.0 mg/kg/injection, schedule: Q04DX003 (ip), vehicle: saline
[2] = endpoint: mean survival time, dose: 50.0 mg/kg/injection, schedule: Q01DX009 (ip), vehicle: saline with Tween-80
[3] = endpoint: mean survival time, dose: 100.0 mg/kg/injection, schedule: Q01DX009 (ip), vehicle: saline with Tween-80
[4] = endpoint: mean survival time, dose: 100.0 mg/kg/injection, schedule: Q04DX003 (ip), vehicle: saline with Tween-80
[5] = endpoint: mean survival time, dose: 200.0 mg/kg/injection, schedule: Q01DX009 (ip), vehicle: saline with Tween-80
[6] = endpoint: mean survival time, dose: 200.0 mg/kg/injection, schedule: Q04DX003 (ip), vehicle: saline with Tween-80
[7] = endpoint: mean survival time, dose: 400.0 mg/kg/injection, schedule: Q01DX009 (ip), vehicle: saline with Tween-80
[8] = endpoint: mean survival time, dose: 400.0 mg/kg/injection, schedule: Q04DX003 (ip), vehicle: saline with Tween-80
[9] = endpoint: mean survival time, dose: 100.0 mg/kg/injection, schedule: Q01DX001 (ip), vehicle: saline
[10] = endpoint: mean survival time, dose: 200.0 mg/kg/injection, schedule: Q01DX001 (ip), vehicle: saline
[11] = endpoint: mean survival time, dose: 400.0 mg/kg/injection, schedule: Q01DX001 (ip), vehicle: saline

## CN(N=O)C(N)=O
endpoint: mean survival time, dose: 5.0 mg/kg/injection, schedule: Q03DX003 (ip), vehicle: saline
  T/C: 112 % of control
endpoint: mean survival time, dose: 5.0 mg/kg/injection, schedule: Q04DX003 (ip), vehicle: saline
  T/C: 117 % of control
endpoint: mean survival time, dose: 10.0 mg/kg/injection, schedule: Q01DX007 (ip), vehicle: saline
  T/C: 166 % of control
endpoint: mean survival time, dose: 10.0 mg/kg/injection, schedule: Q01DX009 (ip), vehicle: saline
  T/C: 175 % of control
endpoint: mean survival time, dose: 20.0 mg/kg/injection, schedule: Q01DX007 (ip), vehicle: saline
  T/C: 124 % of control
endpoint: mean survival time, dose: 20.0 mg/kg/injection, schedule: Q03DX003 (ip), vehicle: saline
  T/C: 156 % of control
endpoint: median survival time, dose: 12.0 mg/kg/injection, schedule: Q01DX009 (ip), vehicle: saline + alcohol
  T/C: 172 % of control
endpoint: median survival time, dose: 14.0 mg/kg/injection, schedule: Q04DX003 (ip), vehicle: saline
  T/C: 113 % of control
endpoint: median survival time, dose: 14.0 mg/kg/injection, schedule: Q07DX003 (ip), vehicle: saline + alcohol
  T/C: 106 % of control
endpoint: median survival time, dose: 20.0 mg/kg/injection, schedule: Q07DX003 (ip), vehicle: saline + alcohol
  T/C: 118 % of control
endpoint: median survival time, dose: 26.0 mg/kg/injection, schedule: Q07DX003 (ip), vehicle: saline + alcohol
  T/C: 116 % of control
endpoint: median survival time, dose: 33.0 mg/kg/injection, schedule: Q07DX003 (ip), vehicle: saline + alcohol
  T/C: 123 % of control
endpoint: median survival time, dose: 36.0 mg/kg/injection, schedule: Q04DX003 (ip), vehicle: saline + alcohol
  T/C: 151 % of control
[1]
  T/C: 160 % of control
endpoint: median survival time, dose: 50.0 mg/kg/injection, schedule: Q01DX009 (ip), vehicle: saline + alcohol
  T/C: 107 % of control
endpoint: median survival time, dose: 60.0 mg/kg/injection, schedule: Q04DX003 (ip), vehicle: saline + alcohol
  T/C: 157 % of control
endpoint: median survival time, dose: 67.0 mg/kg/injection, schedule: Q04DX003 (ip), vehicle: saline
  T/C: 167 % of control
endpoint: median survival time, dose: 100.0 mg/kg/injection, schedule: Q04DX003 (ip), vehicle: saline + alcohol
  T/C: 97 % of control

## CN(C)c1ccc(OC(=O)c2cc3ccccc3cc2O)cc1
endpoint: mean survival time, dose: 50.0 mg/kg/injection, schedule: Q01DX009 (ip), vehicle: Klucel (hydroxypropylcellulose) (HPC)
  T/C: 112 % of control
endpoint: mean survival time, dose: 100.0 mg/kg/injection, schedule: Q01DX009 (ip), vehicle: Klucel (hydroxypropylcellulose) (HPC)
  T/C: 108 % of control
endpoint: mean survival time, dose: 200.0 mg/kg/injection, schedule: Q01DX009 (ip), vehicle: Klucel (hydroxypropylcellulose) (HPC)
  T/C: 101 % of control

## COc1ccc(CN(CCO)CCCCCCN(CCO)Cc2ccc(OC)cc2)cc1
endpoint: mean survival time, dose: 25.0 mg/kg/injection, schedule: Q01DX009 (ip), vehicle: saline with Tween-80
  T/C: 93 % of control
[2]
  T/C: 96 % of control
[3]
  T/C: 98 % of control
endpoint: median survival time, dose: 50.0 mg/kg/injection, schedule: Q04DX002 (ip), vehicle: saline
  T/C: 100 % of control
endpoint: median survival time, dose: 100.0 mg/kg/injection, schedule: Q04DX002 (ip), vehicle: saline
  T/C: 100 % of control

## CC(C)(C)c1cc([N+](C)(C)C)cc(C(C)(C)C)n1
endpoint: mean survival time, dose: 12.5 mg/kg/injection, schedule: Q04DX002 (ip), vehicle: saline with Tween-80
  T/C: 96 % of control
endpoint: mean survival time, dose: 25.0 mg/kg/injection, schedule: Q04DX002 (ip), vehicle: saline with Tween-80
  T/C: 92 % of control
endpoint: mean survival time, dose: 50.0 mg/kg/injection, schedule: Q04DX002 (ip), vehicle: saline with Tween-80
  T/C: 100 % of control

## Cc1ccc(NC(=O)c2ccccc2C(=O)O)cc1C
[3]
  T/C: 98 % of control
[4]
  T/C: 100 % of control
[5]
  T/C: 95 % of control
[6]
  T/C: 101 % of control
[7]
  T/C: 94 % of control
[8]
  T/C: 103 % of control

## COC(=O)CCN(C(=O)c1ccccc1)c1ccccc1C(=O)OC
endpoint: mean survival time, dose: 75.0 mg/kg/injection, schedule: Q04DX003 (ip), vehicle: saline
  T/C: 100 % of control
endpoint: mean survival time, dose: 150.0 mg/kg/injection, schedule: Q04DX003 (ip), vehicle: saline
  T/C: 94 % of control
endpoint: mean survival time, dose: 300.0 mg/kg/injection, schedule: Q04DX003 (ip), vehicle: saline
  T/C: 100 % of control

## CC(=O)C(C(C)=O)C1C=CC=CC=C1
[2]
  T/C: 100 % of control
[5]
  T/C: 94 % of control

## Cc1ccc(-n2c(O)c(C=N)c(=O)[nH]c2=O)cc1
[4]
  T/C: 101 % of control
[6]
  T/C: 97 % of control
[8]
  T/C: 103 % of control

## COC1=C(N=[N+]=[N-])C(=O)C(OC)=C(N=[N+]=[N-])C1=O
endpoint: mean survival time, dose: 5.0 mg/kg/injection, schedule: Q01DX009 (ip), vehicle: saline with Tween-80
  T/C: 101 % of control
endpoint: mean survival time, dose: 5.0 mg/kg/injection, schedule: Q04DX003 (ip), vehicle: saline with Tween-80
  T/C: 93 % of control
endpoint: mean survival time, dose: 10.0 mg/kg/injection, schedule: Q01DX009 (ip), vehicle: saline with Tween-80
  T/C: 94 % of control
endpoint: mean survival time, dose: 10.0 mg/kg/injection, schedule: Q04DX003 (ip), vehicle: saline with Tween-80
  T/C: 95 % of control
endpoint: mean survival time, dose: 20.0 mg/kg/injection, schedule: Q01DX009 (ip), vehicle: saline with Tween-80
  T/C: 94 % of control
endpoint: mean survival time, dose: 20.0 mg/kg/injection, schedule: Q04DX003 (ip), vehicle: saline with Tween-80
  T/C: 95 % of control

## CCCCCCCCCCCCCCCCCC[N+](CC)(CC)CC
endpoint: mean survival time, dose: 0.75 mg/kg/injection, schedule: Q01DX001 (ip), vehicle: Klucel (hydroxypropylcellulose) (HPC)
  T/C: 91 % of control
endpoint: mean survival time, dose: 1.5 mg/kg/injection, schedule: Q01DX001 (ip), vehicle: Klucel (hydroxypropylcellulose) (HPC)
  T/C: 108 % of control
endpoint: mean survival time, dose: 3.0 mg/kg/injection, schedule: Q01DX001 (ip), vehicle: Klucel (hydroxypropylcellulose) (HPC)
  T/C: 100 % of control

## O=Nc1sc2ccccc2c1O
[4]
  T/C: 104 % of control
[6]
  T/C: 96 % of control
[8]
  T/C: 96 % of control

## CCN(CCNc1ccc(C)c2sc3cc(Cl)ccc3c(=O)c12)CC(C)O (centres undefined)
endpoint: mean survival time, dose: 50.0 mg/kg/injection, schedule: Q01DX001 (ip), vehicle: saline
  T/C: 94 % of control
[9]
  T/C: 88 % of control
endpoint: mean survival time, dose: 100.0 mg/kg/injection, schedule: Q04DX003 (ip), vehicle: saline
  T/C: 94 % of control
[10]
  T/C: 94 % of control
endpoint: mean survival time, dose: 200.0 mg/kg/injection, schedule: Q04DX003 (ip), vehicle: saline
  T/C: 94 % of control
[11]
  T/C: 96 % of control
endpoint: mean survival time, dose: 400.0 mg/kg/injection, schedule: Q04DX003 (ip), vehicle: saline
  T/C: 102 % of control

## COc1ccc(CCNC(=O)C(c2ccccc2)c2ccccc2)cc1OC
[3]
  T/C: 97 % of control
[4]
  T/C: 103 % of control
[5]
  T/C: 90 % of control
[6]
  T/C: 101 % of control
[7]
  T/C: 92 % of control
[8]
  T/C: 100 % of control

## O=C(Nc1ccc2c3c(ccc(C(=O)O)c13)CC2)c1ccccc1
[4]
  T/C: 97 % of control
[6]
  T/C: 95 % of control
[8]
  T/C: 104 % of control

## Cc1ccc(-n2c(O)c(N=Nc3ccccc3)c(=O)n(-c3ccccc3)c2=S)cc1
endpoint: mean survival time, dose: 100.0 mg/kg/injection, schedule: Q01DX001 (ip), vehicle: saline with Tween-80
  T/C: 100 % of control
endpoint: mean survival time, dose: 200.0 mg/kg/injection, schedule: Q01DX001 (ip), vehicle: saline with Tween-80
  T/C: 100 % of control
endpoint: mean survival time, dose: 400.0 mg/kg/injection, schedule: Q01DX001 (ip), vehicle: saline with Tween-80
  T/C: 86 % of control

## CN(C)CCCCNc1ccc(NCCCCN(C)C)c2c1C(=O)c1c(O)ccc(O)c1C2=O
endpoint: mean survival time, dose: 25.0 mg/kg/injection, schedule: Q01DX009 (ip), vehicle: saline
  T/C: 102 % of control
endpoint: mean survival time, dose: 50.0 mg/kg/injection, schedule: Q01DX009 (ip), vehicle: saline
  T/C: 98 % of control
endpoint: mean survival time, dose: 100.0 mg/kg/injection, schedule: Q01DX009 (ip), vehicle: saline
  T/C: 93 % of control

## COc1ccc(C(=O)CCCC(=O)O)cc1
[3]
  T/C: 90 % of control
[5]
  T/C: 101 % of control
[7]
  T/C: 97 % of control

## O=c1oc2c(ccc3ccccc32)c(O)c1-c1ccccc1
[2]
  T/C: 103 % of control
[3]
  T/C: 103 % of control

## CS(C)=O.[Cl-].[Cl-].[NH-]CC(O)CN(Cc1ccccc1)CC(O)CN.[Pt] (centres undefined)
endpoint: median survival time, dose: 10.0 mg/kg/injection, schedule: Q04DX003 (ip), vehicle: saline
  T/C: 104 % of control
endpoint: median survival time, dose: 20.0 mg/kg/injection, schedule: Q04DX003 (ip), vehicle: saline
  T/C: 109 % of control
[1]
  T/C: 110 % of control
endpoint: median survival time, dose: 80.0 mg/kg/injection, schedule: Q04DX003 (ip), vehicle: saline
  T/C: 86 % of control

## c1ccc([As]2[As](c3ccccc3)[As](c3ccccc3)[As]2c2ccccc2)cc1 (centres undefined)
endpoint: mean survival time, dose: 5.0 mg/kg/injection, schedule: Q01DX001 (ip), vehicle: saline
  T/C: 101 % of control
endpoint: mean survival time, dose: 10.0 mg/kg/injection, schedule: Q01DX001 (ip), vehicle: saline
  T/C: 108 % of control
endpoint: mean survival time, dose: 20.0 mg/kg/injection, schedule: Q01DX001 (ip), vehicle: saline
  T/C: 111 % of control
endpoint: mean survival time, dose: 40.0 mg/kg/injection, schedule: Q01DX001 (ip), vehicle: saline
  T/C: 113 % of control
endpoint: mean survival time, dose: 80.0 mg/kg/injection, schedule: Q01DX001 (ip), vehicle: saline
  T/C: 119 % of control

## Cc1ccc(P(=S)(c2ccccc2)c2ccccc2)c2ccccc12
[9]
  T/C: 104 % of control
[10]
  T/C: 101 % of control
[11]
  T/C: 95 % of control
